Measured values as given in patent US8431704B2, “Quinoline or isoquinoline substituted P2X7 antagonists” (Janssen Pharmaceutica NV, priority 2008, dated 2013).

Biological target: T1, hP2X7 (Homo sapiens, UniProt Q99572)
T1 construct: expressed in transfected cells; host or cells: 1321N1 astrocytoma cells
T1 sequence (Q99572 1-595): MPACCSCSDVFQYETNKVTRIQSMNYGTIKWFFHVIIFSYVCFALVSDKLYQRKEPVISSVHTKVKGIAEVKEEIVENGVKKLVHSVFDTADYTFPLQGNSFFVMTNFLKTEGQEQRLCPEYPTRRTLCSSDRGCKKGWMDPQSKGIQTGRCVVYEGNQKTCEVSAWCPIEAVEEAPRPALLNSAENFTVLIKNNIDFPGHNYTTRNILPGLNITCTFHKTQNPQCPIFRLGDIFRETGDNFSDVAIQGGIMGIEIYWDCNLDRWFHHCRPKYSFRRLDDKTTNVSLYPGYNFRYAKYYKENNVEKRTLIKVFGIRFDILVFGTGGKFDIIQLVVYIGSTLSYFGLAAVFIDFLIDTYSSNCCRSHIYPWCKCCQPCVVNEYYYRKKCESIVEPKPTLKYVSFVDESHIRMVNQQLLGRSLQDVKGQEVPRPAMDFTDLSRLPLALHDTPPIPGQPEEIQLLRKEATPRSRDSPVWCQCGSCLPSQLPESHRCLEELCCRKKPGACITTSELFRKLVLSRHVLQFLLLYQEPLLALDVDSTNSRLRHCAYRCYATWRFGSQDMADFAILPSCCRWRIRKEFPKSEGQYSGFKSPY
Assay: P2X7 antagonism: ligand-induced Ca2+ flux in 1321N1 astrocytoma cells overexpressing hP2X7
Assay type: cell-based
Conditions: pIC50 = -log(IC50), read-out: hP2RX7pIC50 (mean pIC50 values) (converted)
Protocol: Extracellular binding of ATP to P2X7 that is expressed in the cell-membrane opens the ligand gated cation channel and allows Ca^2+ entry into the cell. This ligand-induced Ca^2+ flux was measured in 1321N1 astrocytoma cells overexpressing hP2X7 for the compounds of the present invention.
The calcium assay kit used (Molecular Devices, R8090), provides a Ca^2+ sensitive dye together with a quenching dye. However, no specifications are given by the manufacturer. The kit most likely consists of a membrane permeable acetoxymethyl (AM) ester of a fluorescent Ca^2+ indicator, such as fluo-4 or fluo-3. Upon cellular uptake, the AM esters get cleaved by esterases, liberating the Ca^2+-sensitive dye which can then bind calcium. The dyes have an absorption spectrum compatible with excitation at 488 nm by argon laser sources and a large fluorescence intensity increase in response to Ca^2+ binding without an accompanying spectral shift. Emission wavelength is in the range of 510-560 nm.
The fluorescence, and thus the changes in intracellular [Ca^2+] in the 1321N1 cells was monitored in time before and after addition of the agonist. The effect of the antagonist was measured as % control and as IC50.

Compound | IC50
CC(C)N1CCN(c2ccc3c(C(=O)NCC(c4cnc(C5CCCC5)nc4)N4CCC(F)(F)CC4)cccc3n2)CC1 (stereo not shown) [Compound 213] | 100 nM
O=C(NCC(c1cnc(OC2CCC2)nc1)N1CCC(F)(F)CC1)c1cccc2nc(NC3CC3)ccc12 (stereo not shown) [Compound 214] | 33.9 nM
CC(C)N1CCN(c2ccc3c(C(=O)NCC(c4cnc(N5CCCC5)nc4)N4CCC(F)(F)CC4)cccc3n2)CC1 (stereo not shown) [Compound 215] | 174 nM
O=C(NCC(c1cnc(NC2CC2)nc1)N1CCC(F)(F)CC1)c1cccc2nc(N3CCCC3)ccc12 (stereo not shown) [Compound 216] | 100 nM
CCc1ncc(C(CNC(=O)c2cccc3nc(NCC4CC4)ccc23)N2CCC(F)(F)CC2)cn1 (stereo not shown) [Compound 217] | 47.9 nM
CN(C)c1ncc(C(CNC(=O)c2cccc3nc(N4CCCC4)ccc23)N2CCOCC2)cn1 (stereo not shown) [Compound 218] | 316 nM
O=C(NCC(c1cnc(N2CCCC2)nc1)N1CCOCC1)c1cccc2nc(N3CCCC3)ccc12 (stereo not shown) [Compound 219] | 126 nM
CCc1ncc(C(CNC(=O)c2cccc3nc(N4CCOCC4)ccc23)N2CCC(F)(F)CC2)cn1 (stereo not shown) [Compound 220] | 83.2 nM
CCc1ncc(C(CNC(=O)c2cccc3nc(NC4CC4)ccc23)N2CCC(F)(F)CC2)cn1 (stereo not shown) [Compound 221] | 67.6 nM
CC(=O)N1CCN(c2ncc(C(CNC(=O)c3cccc4nc(N5CCCC5)ccc34)N3CCC(F)(F)CC3)cn2)CC1 (stereo not shown) [Compound 222] | 66.1 nM
O=C(NCC(c1cnc(N2CCNCC2)nc1)N1CCC(F)(F)CC1)c1cccc2nc(NCC3CC3)ccc12 (stereo not shown) [Compound 223] | 195 nM
O=C(NCC(c1cnc(N2CCOCC2)nc1)N1CCC(F)(F)CC1)c1cccc2nc(N3CCCC3)ccc12 (stereo not shown) [Compound 224] | 115 nM
O=C(NCC(c1cnc(N2CCCC2)nc1)N1CCC(F)(F)CC1)c1cccc2nc(N3CCCC3)ccc12 (stereo not shown) [Compound 225] | 102 nM
Nc1ncc(C(CNC(=O)c2cccc3nc(N4CCCC4)ccc23)N2CCC(F)(F)CC2)cn1 (stereo not shown) [Compound 226] | 162 nM
CC(C)Oc1ncc(C(CNC(=O)c2cccc3nc(NCC4CC4)ccc23)N2CCOCC2)cn1 (stereo not shown) [Compound 227] | 33.1 nM
CCOc1ncc(C(CNC(=O)c2cccc3nc(N4CCOCC4)ccc23)N2CCOCC2)cn1 (stereo not shown) [Compound 228] | 51.3 nM
CCOc1ncc(C(CNC(=O)c2cccc3nc(NC4CC4)ccc23)N2CCOCC2)cn1 (stereo not shown) [Compound 229] | 69.2 nM
CC(C)c1ncc(C(CNC(=O)c2cccc3nc(N4CCOCC4)ccc23)N2CCOCC2)cn1 (stereo not shown) [Compound 230] | 141 nM
CC(C)c1ncc(C(CNC(=O)c2cccc3nc(NC4CC4)ccc23)N2CCOCC2)cn1 (stereo not shown) [Compound 231] | 115 nM
CN(C)c1ncc(C(CNC(=O)c2cccc3nc(N4CCOCC4)ccc23)N2CCOCC2)cn1 (stereo not shown) [Compound 232] | 170 nM
CN(C)c1ncc(C(CNC(=O)c2cccc3nc(NC4CC4)ccc23)N2CCOCC2)cn1 (stereo not shown) [Compound 233] | 148 nM

Compound | IC50
O=C(NCC(c1cnc(OCC2CC2)nc1)N1CCC(F)(F)CC1)c1cccc2nc(NCC3CC3)ccc12 (stereo not shown) [Compound 234] | 26.9 nM
CC(C)Oc1ncc(C(CNC(=O)c2cccc3nc(N4CCOCC4)ccc23)N2CCC(F)(F)CC2)cn1 (stereo not shown) [Compound 235] | 56.2 nM
CC(C)Oc1ncc(C(CNC(=O)c2cccc3nc(NC4CC4)ccc23)N2CCC(F)(F)CC2)cn1 (stereo not shown) [Compound 236] | 34.7 nM
O=C(NCC(c1cnc(-c2ccccc2)nc1)N1CCC(F)(F)CC1)c1cccc2nc(NCC3CC3)ccc12 (stereo not shown) [Compound 237] | 89.1 nM
O=C(NCC(c1cnc(C2CCCC2)nc1)N1CCC(F)(F)CC1)c1cccc2nc(NC3CC3)ccc12 (stereo not shown) [Compound 238] | 38.9 nM
O=C(NCC(c1cnc(OC2CCC2)nc1)N1CCC(F)(F)CC1)c1cccc2nc(N3CCOCC3)ccc12 (stereo not shown) [Compound 239] | 53.7 nM
CC(=O)N1CCN(c2ncc(C(CNC(=O)c3cccc4nc(NCC5CC5)ccc34)N3CCC(F)(F)CC3)cn2)CC1 (stereo not shown) [Compound 240] | 57.5 nM
CC(C)Oc1ncc(C(CNC(=O)c2cccc3nc(N4CCOCC4)ccc23)N2CCOCC2)cn1 (stereo not shown) [Compound 241] | 117 nM
CC(C)Oc1ncc(C(CNC(=O)c2cccc3nc(NC4CC4)ccc23)N2CCOCC2)cn1 (stereo not shown) [Compound 242] | 115 nM
CCOc1ncc(C(CNC(=O)c2cccc3nc(NCC4CC4)ccc23)N2CCOCC2)cn1 (stereo not shown) [Compound 243] | 50.1 nM
CC(C)c1ncc(C(CNC(=O)c2cccc3nc(NCC4CC4)ccc23)N2CCOCC2)cn1 (stereo not shown) [Compound 244] | 79.4 nM
CN(C)c1ncc(C(CNC(=O)c2cccc3nc(NCC4CC4)ccc23)N2CCOCC2)cn1 (stereo not shown) [Compound 245] | 170 nM
O=C(NCC(c1cnc(OCC2CC2)nc1)N1CCC(F)(F)CC1)c1cccc2nc(N3CCOCC3)ccc12 (stereo not shown) [Compound 246] | 32.4 nM
O=C(NCC(c1cnc(OCC2CC2)nc1)N1CCC(F)(F)CC1)c1cccc2nc(NC3CC3)ccc12 (stereo not shown) [Compound 247] | 20.9 nM
CC(C)Oc1ncc(C(CNC(=O)c2cccc3nc(NCC4CC4)ccc23)N2CCC(F)(F)CC2)cn1 (stereo not shown) [Compound 248] | 33.1 nM
O=C(NCC(c1cnc(C2CCCC2)nc1)N1CCC(F)(F)CC1)c1cccc2nc(N3CCOCC3)ccc12 (stereo not shown) [Compound 249] | 51.3 nM
CC(=O)N1CCN(c2ncc(C(CNC(=O)c3cccc4nc(N5CCOCC5)ccc34)N3CCC(F)(F)CC3)cn2)CC1 (stereo not shown) [Compound 250] | 77.6 nM
CC(=O)N1CCN(c2ncc(C(CNC(=O)c3cccc4nc(NC5CC5)ccc34)N3CCC(F)(F)CC3)cn2)CC1 (stereo not shown) [Compound 251] | 64.6 nM
O=C(NCC(c1cnc(N2CCOCC2)nc1)N1CCC(F)(F)CC1)c1cccc2nc(NCC3CC3)ccc12 (stereo not shown) [Compound 252] | 49 nM
CCOc1ncc(C(CNC(=O)c2cccc3nc(N4CCOCC4)ccc23)N2CCC(F)(F)CC2)cn1 (stereo not shown) [Compound 253] | 36.3 nM
CCOc1ncc(C(CNC(=O)c2cccc3nc(NC4CC4)ccc23)N2CCC(F)(F)CC2)cn1 (stereo not shown) [Compound 254] | 29.5 nM

Compound | IC50
O=C(NCC(c1cncnc1)N1CCC(F)(F)CC1)c1cccc2nc(NC3CC3)ccc12 (stereo not shown) [Compound 256] | 44.7 nM
CCOc1ncc(C(CNC(=O)c2cccc3nc(NCC4CC4)ccc23)N2CCC(F)(F)CC2)cn1 (stereo not shown) [Compound 257] | 26.3 nM
CC(C)c1ncc(C(CNC(=O)c2cccc3nc(NCC4CC4)ccc23)N2CCC(F)(F)CC2)cn1 (stereo not shown) [Compound 258] | 44.7 nM
O=C(NCC(c1cnc(N2CCCC2)nc1)N1CCOCC1)c1cccc2nc(NC3CC3)ccc12 (stereo not shown) [Compound 259] | 97.7 nM
COc1ncc(C(CNC(=O)c2cccc3nc(NCC4CC4)ccc23)N2CCC(F)(F)CC2)cn1 (stereo not shown) [Compound 260] | 27.5 nM
CC(C)c1ncc(C(CNC(=O)c2cccc3nc(NC4CC4)ccc23)N2CCC(F)(F)CC2)cn1 (stereo not shown) [Compound 261] | 37.2 nM
O=C(NCC(c1cnc(N2CCCC2)nc1)N1CCC(F)(F)CC1)c1cccc2nc(NCC3CC3)ccc12 (stereo not shown) [Compound 262] | 56.2 nM
O=C(NCC(c1cnc(NC2CC2)nc1)N1CCC(F)(F)CC1)c1cccc2nc(NCC3CC3)ccc12 (stereo not shown) [Compound 263] | 37.2 nM
O=C(NCC(c1cnc(N2CCCC2)nc1)N1CCOCC1)c1cccc2nc(NCC3CC3)ccc12 (stereo not shown) [Compound 264] | 77.6 nM
CC(C)c1ncc(C(CNC(=O)c2cccc3nc(N4CCOCC4)ccc23)N2CCC(F)(F)CC2)cn1 (stereo not shown) [Compound 265] | 64.6 nM
CN(C)c1ncc(C(CNC(=O)c2cccc3nc(NCC4CC4)ccc23)N2CCC(F)(F)CC2)cn1 (stereo not shown) [Compound 266] | 50.1 nM
Nc1ncc(C(CNC(=O)c2cccc3nc(NCC4CC4)ccc23)N2CCC(F)(F)CC2)cn1 (stereo not shown) [Compound 267] | 115 nM
O=C(NCC(c1cncnc1)N1CCC(F)(F)CC1)c1cccc2nc(N3CCOCC3)ccc12 (stereo not shown) [Compound 268] | 33.1 nM
O=C(NCC(c1cnc(N2CCOCC2)nc1)N1CCC(F)(F)CC1)c1cccc2nc(N3CCOCC3)ccc12 (stereo not shown) [Compound 269] | 229 nM
O=C(NCC(c1cnc(NC2CC2)nc1)N1CCC(F)(F)CC1)c1cccc2nc(NC3CC3)ccc12 (stereo not shown) [Compound 270] | 102 nM
CC1CN(c2ccc3c(C(=O)NCC(c4cnc(C(F)(F)F)nc4)N4CCOCC4)cccc3n2)CCN1 (stereo not shown) [Compound 271] | 107 nM
CC(C)N(C)c1ccc2c(C(=O)NCC(c3cnc(C(F)(F)F)nc3)N3CCOCC3)cccc2n1 (stereo not shown) [Compound 272] | 60.3 nM
CC1(C)CCN(c2ccc3c(C(=O)NCC(c4cnc(C(F)(F)F)nc4)N4CCOCC4)cccc3n2)CC1 (stereo not shown) [Compound 273] | 112 nM
CCC1CN(c2ccc3c(C(=O)NCC(c4cnc(C(F)(F)F)nc4)N4CCOCC4)cccc3n2)CCN1 (stereo not shown) [Compound 274] | 145 nM
